Tests used:
ITC = format: binding, Pyrococcus furiosus; settings: 25 °C, 50 mM Tris pH 7.5, 100 mM NaCl, 5 mM MgCl2; read-out: RAD51-BRC4 / K D/μM
RAD51–BRC4 = target: T1, RAD51–BRC4 (Homo sapiens, UniProt Q06609); experiment: ITC; format: binding; settings: read-out: RAD51-BRC4 / K D/μM
T1 construct: monomerised fusion: BRC repeat 4 of BRCA2 covalently linked to the N terminus of the human RAD51 ATPase domain; with Breast cancer type 2 susceptibility protein (BRC repeat 4)

HumRadA2 = target: T2, HumRadA2 (Pyrococcus furiosus, UniProt O74036, I169M/Y201A/V202Y/E219S/D220A/K221M/DEL288-301); experiment: ITC; format: binding; settings: 25 °C, 50 mM Tris pH 7.5, 100 mM NaCl, 5 mM MgCl2; read-out: HumRadA2 / K D/μM
T2 construct: gene radA; humanised monomeric C-terminal ATPase domain of RadA; six FxxA-site mutations; E. coli BL21(DE3)

T1 sequence (Q06609 97-339 limits assumed): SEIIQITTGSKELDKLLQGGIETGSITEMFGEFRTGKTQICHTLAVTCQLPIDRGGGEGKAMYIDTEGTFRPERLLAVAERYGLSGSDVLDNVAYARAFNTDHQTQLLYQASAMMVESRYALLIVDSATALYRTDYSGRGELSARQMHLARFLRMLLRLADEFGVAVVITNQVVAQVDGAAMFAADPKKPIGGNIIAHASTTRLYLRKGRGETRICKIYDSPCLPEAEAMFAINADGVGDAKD
T1 sequence (P51587 1517-1551 partner limits assumed): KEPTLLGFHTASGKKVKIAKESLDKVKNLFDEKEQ

Nc1ncnc2c1ncn2[C@@H]1O[C@H](COP(=O)(O)OP(=O)(O)OP(=O)(O)O)[C@@H](O)[C@H]1O [ATP]
Kd (ITC): 1 µM | Kd (RAD51–BRC4): 1 µM

Nc1nc2c(ncn2[C@@H]2O[C@H](COP(=O)(O)OP(=O)(O)O)[C@@H](O)[C@H]2O)c(=O)[nH]1 [GDP]
Kd (HumRadA2): 0.21 µM | Kd (RAD51–BRC4): 2.5 µM

Nc1ncnc2c1ncn2[C@@H]1O[C@H](COP(=O)(O)OP(=O)(O)O)[C@@H](O)[C@H]1O [ADP]
Kd (HumRadA2): 0.54 µM | Kd (RAD51–BRC4): 1 µM

Nc1ncnc2c1ncn2[C@@H]1O[C@H](COP(=O)(O)OP(=O)(O)NP(=O)(O)O)[C@@H](O)[C@H]1O [AMPPNP]
Kd (HumRadA2): 20 µM | Kd (RAD51–BRC4): 12 µM

Nc1nc2c(ncn2[C@@H]2O[C@H](COP(=O)(O)OP(=O)(O)OP(=O)(O)O)[C@@H](O)[C@H]2O)c(=O)[nH]1 [GTP]
Kd (HumRadA2): 0.64 µM | Kd (RAD51–BRC4): 5 µM
